One series concerns sBC clusters. As to the kind of experiment: Selective delivery of PTM toxin to sBC clusters, live/dead cell quantification. The class given is cell-based, human. The settings on record: 24 hours, vs untreated control. The method, then: Blank or pentamidine (PTM) (B-cell toxin) loaded NCs were left uncoated or coated with either an ENTPD3 antibody or BSA for up to about 168 hours. Untreated and 1 μM free PTM were utilized as additional controls. […] Although benzalkonium chloride (BKC) can be used for biological applications, it can be toxic to cells at high concentrations.
In further exemplary methods, the number of GFP positive and GFP negative dead cells were quantified as GFP correlates to insulin positive cells. For the dead sBC clusters, 76% at 24 hours (FIG. 20G) and 69% at 72 hours were GFP positive (FIG. 20H).

Series [1] in a line: NC stability after freeze drying with cryoprotectant. The class given is physicochemical. Here is the method: In another exemplary method, NC stability after freeze drying was tested as a potential method for preserving NCs for long term storage and use including analyzing NC integrity and cargo retention for extended periods of time. In this example, mannitol (a sugar alcohol example, e.g., sorbitol and the like) was chosen as the cryoprotectant. W/O NCs were utilized for this experiment. Mannitol concentrations of 2.5% w/v, 5.0 w/v, and 10.0 w/v were tested to determine the optimal concentration (FIG. 13A). […] SEM images were taken before (FIG. 13B) and after (FIG. 13C) freeze drying to confirm DLS measurements. It was observed that the NC yield decreased after reconstitution which may be attributed to the mannitol crystallizing and imposing mechanical forces either breaking the NCs or forming aggregates. It is noted that mannitol can be removed, if needed or desired, from the NC formulations by centrifugation and washing in either water or PBS.

For `N=C(N)c1ccc(OCCCCCOc2ccc(C(=N)N)cc2)cc1` [free PTM, pentamidine], the “percentage of dead cells” value with sBC clusters is listed as “killed the majority of sBCs”.

With `OC[C@H]1O[C@H](O[C@]2(CCl)O[C@H](CCl)[C@@H](O)[C@@H]2O)[C@H](O)[C@@H](O)[C@H]1Cl` [sucralose], the “ability to replace mannitol as cryoprotectant in freeze drying of NCs” value in series [1] is listed as “failed to stabilize the NCs”.

For `OC[C@H]1O[C@@](CO)(O[C@H]2O[C@H](CO)[C@@H](O)[C@H](O)[C@H]2O)[C@@H](O)[C@@H]1O` [sucrose], the “ability to replace mannitol as cryoprotectant in freeze drying of NCs” value in series [1] was “failed to stabilize the NCs”.

For the origin of these results see patent US20250325493A1, “COMPOSITIONS AND METHODS FOR MAKING AND USING POLYMER-COATED NANOCAPSULES FOR TARGETED PHARMACEUTICAL AGENT DELIVERY” (The Regents of the University of Colorado, a body Corporate, priority 2022, published 2025).
